Measurements taken from patent publication US20140113898A1, “BISARYLSULFONE AND DIALKYLARYLSULFONE COMPOUNDS AS CALCIUM CHANNEL BLOCKERS” (Zalicus Pharmaceuticals Ltd., priority 2010, published 2014).
Where two headings read alike, the source gives them in different places.

Key:
Format in all cases: cell-based
CaV3.1 = biological target: T1, CaV3.1 (Homo sapiens, UniProt O43497); experiment: High-throughput CaV3.1 T-type FLIPR fluorescent assay; details: Fluo-4 FLIPR
T1 construct: expressed in transfected cells; host or cells: unnamed doxycycline-inducible cell line
Summary of the method: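 Doxycycline-induced CaV3.1 cells were loaded with Fluo-4 at 29 °C and pre-incubated with compound for 20 min at 29 °C in low-Ca2+ buffer (0.001 mM CaCl2, pH 7.2). Calcium entry was triggered by buffer containing 6 mM CaCl2, and Fluo-4 fluorescence was recorded on FLIPR for 3 min. IC50 came from logistic fits.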

CaV2.2 = biological target: T2, CaV2.2 (Homo sapiens, UniProt Q00975); experiment: High-throughput CaV2.2/Kir2.3 FLIPR fluorescent assay; details: Fluo-4 FLIPR, closed or inactivated state not stated, read-out: FLIPR data CaV2.2
T2 construct: expressed in transfected cells; host or cells: unnamed doxycycline-inducible cell line
Summary of the method: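 IC50 was derived by logistic fitting of the FLIPR Fluo-4 signal recorded over 3 min after a 130 mM KCl stimulus. Before stimulation, cells (channel expression induced with doxycycline, 29 °C on assay day) were kept in pH 7.4 buffer with 2 mM KCl for the closed-state format or 12.5 mM KCl for the inactivated-state format.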

CaV3.2 = biological target: T3, CaV3.2 (Homo sapiens, UniProt O95180); experiment: High-throughput CaV3.2/Kir2.3 T-type FLIPR fluorescent assay; details: Fluo-4 FLIPR, closed or inactivated state not stated
T3 construct: expressed in transfected cells; host or cells: unnamed doxycycline-inducible cell line
Summary of the method: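 Doxycycline-induced cells loaded with Fluo-4, preincubated 20 min at 29°C with compound in 2 mM KCl (closed-state) or 7.6 mM KCl (inactivated-state) buffer, pH 7.4. Calcium entry triggered by 12 mM or 14.5 mM KCl respectively; fluorescence read 3 min by FLIPR, IC50 from logistic fit.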

T1 sequence (O43497 whole entry): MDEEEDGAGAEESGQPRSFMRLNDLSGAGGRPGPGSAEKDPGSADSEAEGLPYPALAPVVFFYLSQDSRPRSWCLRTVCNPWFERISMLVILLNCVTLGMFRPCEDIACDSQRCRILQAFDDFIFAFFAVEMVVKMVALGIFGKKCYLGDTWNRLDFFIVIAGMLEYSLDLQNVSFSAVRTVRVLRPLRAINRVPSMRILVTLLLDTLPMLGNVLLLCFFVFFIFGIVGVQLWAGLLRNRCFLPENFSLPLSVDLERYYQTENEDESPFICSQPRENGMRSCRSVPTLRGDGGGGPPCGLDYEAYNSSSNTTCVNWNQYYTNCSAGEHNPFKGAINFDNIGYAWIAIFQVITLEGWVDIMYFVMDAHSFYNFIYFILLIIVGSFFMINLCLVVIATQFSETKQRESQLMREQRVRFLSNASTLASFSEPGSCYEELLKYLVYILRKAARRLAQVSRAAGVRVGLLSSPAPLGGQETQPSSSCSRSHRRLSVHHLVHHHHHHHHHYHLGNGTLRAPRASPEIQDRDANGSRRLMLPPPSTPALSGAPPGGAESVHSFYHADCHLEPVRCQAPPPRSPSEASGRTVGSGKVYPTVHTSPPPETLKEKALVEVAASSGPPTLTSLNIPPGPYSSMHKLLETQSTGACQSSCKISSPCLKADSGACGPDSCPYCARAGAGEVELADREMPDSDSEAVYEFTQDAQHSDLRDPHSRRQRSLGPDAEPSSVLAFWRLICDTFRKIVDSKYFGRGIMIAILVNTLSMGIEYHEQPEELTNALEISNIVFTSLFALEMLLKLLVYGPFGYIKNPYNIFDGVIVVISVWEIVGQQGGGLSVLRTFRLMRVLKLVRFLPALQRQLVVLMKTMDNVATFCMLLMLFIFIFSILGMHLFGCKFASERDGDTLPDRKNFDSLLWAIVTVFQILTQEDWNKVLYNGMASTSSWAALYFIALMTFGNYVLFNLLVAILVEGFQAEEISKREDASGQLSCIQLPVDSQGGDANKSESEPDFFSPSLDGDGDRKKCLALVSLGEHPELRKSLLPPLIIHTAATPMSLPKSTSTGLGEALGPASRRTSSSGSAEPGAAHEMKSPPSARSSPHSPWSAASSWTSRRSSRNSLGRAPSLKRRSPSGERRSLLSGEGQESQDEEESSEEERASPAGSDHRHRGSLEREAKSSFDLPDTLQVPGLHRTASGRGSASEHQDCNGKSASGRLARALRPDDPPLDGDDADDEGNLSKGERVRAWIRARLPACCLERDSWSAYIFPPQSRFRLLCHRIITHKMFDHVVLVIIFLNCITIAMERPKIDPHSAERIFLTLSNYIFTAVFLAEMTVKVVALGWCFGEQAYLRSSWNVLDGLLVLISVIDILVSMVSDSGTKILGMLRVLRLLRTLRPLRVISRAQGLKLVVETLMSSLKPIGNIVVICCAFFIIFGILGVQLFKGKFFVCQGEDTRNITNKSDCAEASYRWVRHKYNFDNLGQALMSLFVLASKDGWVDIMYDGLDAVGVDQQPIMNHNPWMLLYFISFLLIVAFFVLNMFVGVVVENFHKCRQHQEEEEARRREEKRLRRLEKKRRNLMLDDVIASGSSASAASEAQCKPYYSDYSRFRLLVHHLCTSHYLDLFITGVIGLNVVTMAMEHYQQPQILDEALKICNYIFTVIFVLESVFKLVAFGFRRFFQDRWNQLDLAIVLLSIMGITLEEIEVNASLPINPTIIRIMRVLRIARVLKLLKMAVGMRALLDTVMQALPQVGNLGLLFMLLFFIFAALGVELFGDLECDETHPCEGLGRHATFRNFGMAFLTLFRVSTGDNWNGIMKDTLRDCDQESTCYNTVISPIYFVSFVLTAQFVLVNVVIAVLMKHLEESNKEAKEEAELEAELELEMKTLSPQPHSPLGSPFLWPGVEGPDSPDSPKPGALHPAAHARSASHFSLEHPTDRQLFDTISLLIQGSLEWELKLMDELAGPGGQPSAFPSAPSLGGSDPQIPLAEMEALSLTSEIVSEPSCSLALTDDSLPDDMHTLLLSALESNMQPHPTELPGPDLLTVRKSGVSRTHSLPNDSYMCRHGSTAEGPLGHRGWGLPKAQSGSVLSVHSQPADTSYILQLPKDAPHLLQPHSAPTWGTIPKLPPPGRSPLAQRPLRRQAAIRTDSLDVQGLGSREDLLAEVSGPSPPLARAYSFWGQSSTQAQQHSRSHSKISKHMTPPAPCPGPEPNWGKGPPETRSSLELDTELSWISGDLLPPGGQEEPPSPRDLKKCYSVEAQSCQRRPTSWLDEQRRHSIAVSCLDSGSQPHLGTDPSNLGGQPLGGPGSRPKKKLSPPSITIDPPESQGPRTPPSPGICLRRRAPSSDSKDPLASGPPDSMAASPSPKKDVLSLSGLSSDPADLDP
T3 sequence (O95180 whole entry): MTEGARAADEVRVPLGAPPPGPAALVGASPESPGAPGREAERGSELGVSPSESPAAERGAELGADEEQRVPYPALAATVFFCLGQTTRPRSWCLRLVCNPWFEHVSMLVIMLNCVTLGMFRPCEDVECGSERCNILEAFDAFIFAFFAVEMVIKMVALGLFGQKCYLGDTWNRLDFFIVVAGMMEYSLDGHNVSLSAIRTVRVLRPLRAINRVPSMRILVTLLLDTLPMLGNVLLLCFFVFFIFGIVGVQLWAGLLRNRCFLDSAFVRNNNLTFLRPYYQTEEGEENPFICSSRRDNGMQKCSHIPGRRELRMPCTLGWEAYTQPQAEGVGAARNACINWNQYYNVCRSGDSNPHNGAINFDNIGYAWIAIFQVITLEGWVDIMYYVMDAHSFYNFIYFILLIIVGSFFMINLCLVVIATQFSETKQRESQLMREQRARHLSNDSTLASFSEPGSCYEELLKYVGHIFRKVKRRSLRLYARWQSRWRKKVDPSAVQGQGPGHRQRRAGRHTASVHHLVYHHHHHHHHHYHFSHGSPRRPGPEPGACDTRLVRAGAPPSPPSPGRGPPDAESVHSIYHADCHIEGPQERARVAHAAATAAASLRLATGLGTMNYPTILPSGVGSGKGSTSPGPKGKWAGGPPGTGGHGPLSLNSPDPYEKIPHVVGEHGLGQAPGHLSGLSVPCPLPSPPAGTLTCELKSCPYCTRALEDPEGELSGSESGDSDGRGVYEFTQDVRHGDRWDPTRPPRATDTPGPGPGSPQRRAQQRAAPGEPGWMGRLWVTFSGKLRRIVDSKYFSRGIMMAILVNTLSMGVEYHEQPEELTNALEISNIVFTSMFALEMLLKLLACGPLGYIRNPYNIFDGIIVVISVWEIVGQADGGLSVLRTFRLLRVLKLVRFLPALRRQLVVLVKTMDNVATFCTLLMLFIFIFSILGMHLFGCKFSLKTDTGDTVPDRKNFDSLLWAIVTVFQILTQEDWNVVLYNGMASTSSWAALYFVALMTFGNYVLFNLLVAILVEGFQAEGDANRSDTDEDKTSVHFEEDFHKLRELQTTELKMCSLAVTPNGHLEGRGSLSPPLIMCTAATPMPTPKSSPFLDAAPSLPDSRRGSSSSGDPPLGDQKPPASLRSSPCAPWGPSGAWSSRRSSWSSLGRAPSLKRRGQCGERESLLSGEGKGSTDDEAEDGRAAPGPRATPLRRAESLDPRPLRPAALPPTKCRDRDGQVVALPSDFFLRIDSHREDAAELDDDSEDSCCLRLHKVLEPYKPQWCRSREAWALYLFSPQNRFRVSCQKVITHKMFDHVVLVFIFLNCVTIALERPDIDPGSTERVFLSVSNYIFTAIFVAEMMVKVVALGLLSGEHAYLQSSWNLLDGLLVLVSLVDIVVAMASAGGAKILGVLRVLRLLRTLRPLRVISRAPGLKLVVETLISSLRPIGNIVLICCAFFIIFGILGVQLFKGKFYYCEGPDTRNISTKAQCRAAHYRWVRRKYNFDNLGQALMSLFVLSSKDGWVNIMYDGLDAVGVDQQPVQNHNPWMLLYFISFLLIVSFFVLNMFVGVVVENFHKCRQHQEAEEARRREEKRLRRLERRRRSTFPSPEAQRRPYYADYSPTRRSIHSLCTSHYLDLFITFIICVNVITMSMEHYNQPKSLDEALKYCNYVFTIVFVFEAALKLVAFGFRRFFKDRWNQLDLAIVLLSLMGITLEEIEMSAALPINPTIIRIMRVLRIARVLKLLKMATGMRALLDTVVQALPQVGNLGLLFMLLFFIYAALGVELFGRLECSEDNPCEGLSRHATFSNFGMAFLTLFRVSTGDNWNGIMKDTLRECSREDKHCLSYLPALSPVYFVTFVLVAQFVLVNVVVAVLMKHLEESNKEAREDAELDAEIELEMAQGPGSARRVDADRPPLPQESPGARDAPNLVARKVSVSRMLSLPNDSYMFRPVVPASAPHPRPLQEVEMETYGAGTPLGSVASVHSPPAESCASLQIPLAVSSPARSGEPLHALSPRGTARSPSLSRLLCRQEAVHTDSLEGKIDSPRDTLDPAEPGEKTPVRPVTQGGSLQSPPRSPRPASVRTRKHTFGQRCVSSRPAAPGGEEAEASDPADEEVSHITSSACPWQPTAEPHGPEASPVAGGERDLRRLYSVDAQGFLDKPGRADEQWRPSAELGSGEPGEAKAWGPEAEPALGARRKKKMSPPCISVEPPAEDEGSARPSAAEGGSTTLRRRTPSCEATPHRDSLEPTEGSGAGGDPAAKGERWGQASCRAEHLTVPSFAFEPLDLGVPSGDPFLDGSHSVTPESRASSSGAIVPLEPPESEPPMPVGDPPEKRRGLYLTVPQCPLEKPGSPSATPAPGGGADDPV

Structure (SMILES)	IC50 (CaV3.1; Table 4)	IC50 (CaV2.2; Table 4)	IC50 (CaV3.2; Table 4)	IC50 (CaV3.1; Table 5)	IC50 (CaV2.2; Table 5)	IC50 (CaV3.2; Table 5)
O=C(NCc1ccccc1S(=O)(=O)c1cccc(C(F)(F)F)c1)c1ccc(Cl)c(F)c1 [Compound 36, 4-chloro-3-fluoro-N-(2-((3-(trifluoromethyl)phenyl)sulfonyl)benzyl)benzamide]	410 nM	830 nM	770 nM			
CC(C)(C(=O)NCc1cccc(C(F)(F)F)c1)S(=O)(=O)c1cccc(C(F)(F)F)c1 [Compound 124, 2-methyl-N-(3-(trifluoromethyl)benzyl)-2-((3-(trifluoromethyl)phenyl)sulfonyl)propanamide]				4250 nM	750 nM	5620 nM
CS(=O)(=O)c1cc(C(F)(F)F)cnc1C(=O)NCc1ccccc1S(=O)(=O)c1cccc(C(F)(F)F)c1 [Compound 43, 3-(methylsulfonyl)-5-(trifluoromethyl)-N-(2-((3-(trifluoromethyl)phenyl)sulfonyl)benzyl)picolinamide]	1420 nM	670 nM	3380 nM			
O=C(NCc1cccc(S(=O)(=O)c2cccc(C(F)(F)F)c2)c1)c1cc(F)cc(Cl)c1 [Compound 18, 3-chloro-5-fluoro-N-(3-((3-(trifluoromethyl)phenyl)sulfonyl)benzyl)benzamide]	1570 nM	220 nM	840 nM			
CC(C)(C(=O)NCCc1c[nH]c2ccc(F)cc12)S(=O)(=O)c1cccc(C(F)(F)F)c1 [Compound 131, N-(2-(5-fluoro-1H-indol-3-yl)ethyl)-2-methyl-2-((3-(trifluoromethyl)phenyl)sulfonyl)propanamide]				6660 nM	790 nM	5210 nM
CC(C)(C(=O)Nc1ccc(Oc2ccc(F)c(Cl)c2)nc1)S(=O)(=O)c1cccc(OC(F)(F)F)c1 [Compound 121, N-(6-(3-chloro-4-fluorophenoxy)pyridin-3-yl)-2-methyl-2-((3-(trifluoromethoxy)phenyl)sulfonyl)propanamide]				4900 nM	660 nM	1150 nM
O=C(NCc1ccc(S(=O)(=O)c2cccc(C(F)(F)F)c2)cc1)c1ccc(Cl)c(F)c1 [Compound 1, 4-chloro-3-fluoro-N-(4-((3-(trifluoromethyl)phenyl)sulfonyl)benzyl)benzamide]	1290 nM	760 nM	620 nM			
CS(=O)(=O)c1cc(C(F)(F)F)ccc1C(=O)NCc1ccc(S(=O)(=O)c2cccc(C(F)(F)F)c2)cn1 [Compound 99, 2-(methylsulfonyl)-4-(trifluoromethyl)-N-((5-((3-(trifluoromethyl)phenyl)sulfonyl)pyridin-2-yl)methyl)benzamide]	1270 nM	910 nM	1320 nM			

The next lines start with the values.

IC50 (CaV3.1; Table 4)	IC50 (CaV2.2; Table 4)	IC50 (CaV3.2; Table 4)	IC50 (CaV3.1; Table 5)	IC50 (CaV2.2; Table 5)	IC50 (CaV3.2; Table 5)	Structure (SMILES)
1630 nM	590 nM	970 nM				O=C1c2cc(C(F)(F)F)nn2CCN1Cc1cccc(S(=O)(=O)c2cccc(C(F)(F)F)c2)c1 [Compound 34, 2-(trifluoromethyl)-5-(3-((3-(trifluoromethyl)phenyl)sulfonyl)benzyl)-6,7-dihydropyrazolo[1,5-a]pyrazin-4(5H)-one]
1880 nM	580 nM	1180 nM				O=C(NCc1cccc(S(=O)(=O)c2cccc(C(F)(F)F)c2)c1)c1cnc(C(F)(F)F)nc1 [Compound 26, 2-(trifluoromethyl)-N-(3-((3-(trifluoromethyl)phenyl)sulfonyl)benzyl)pyrimidine-5-carboxamide]
1850 nM	1220 nM	1740 nM				O=C1c2cc(C(F)(F)F)nn2CCN1Cc1ccccc1S(=O)(=O)c1cccc(C(F)(F)F)c1 [Compound 35, 2-(trifluoromethyl)-5-(2-((3-(trifluoromethyl)phenyl)sulfonyl)benzyl)-6,7-dihydropyrazolo[1,5-a]pyrazin-4(5H)-one]
6530 nM	820 nM	3970 nM				Cn1nc(C(F)(F)F)cc1C(=O)NCc1cc(S(=O)(=O)c2cccc(C(F)(F)F)c2)ccn1 [Compound 109, 1-methyl-3-(trifluoromethyl)-N-((4-((3-(trifluoromethyl)phenyl)sulfonyl)pyridin-2-yl)methyl)-1H-pyrazole-5-carboxamide]
